Assay results from ChEMBL document CHEMBL1201862, “PubChem BioAssay data set” (2004).
Activity calls are given as the source filed them.

Tests used:
Beta-lactamase [1] = target: Beta-lactamase (Salmonella choleraesuis (strain SC-B67), UniProt Q5J463); test: Epi-absorbance-based counterscreen for selective VIM-2 inhibitors: dose response biochemical high throughput screening assay to identify inhibitors of TEM-1 serine-beta-lactamase.
Beta-lactamase [2] = target: T1, Beta-lactamase (Pseudomonas aeruginosa, UniProt Q79MP6); test: IMP-1 metallo-beta-lactamase inhibitors, dose response, selectivity assay for VIM-2 inhibitor project, biochemical, epi-absorbance (AID 1920)
[3] = target: Peroxisome proliferator-activated receptor gamma/Nuclear receptor coactivator 1 (Homo sapiens, UniProt P37231); test: (§1) TR-FRET dose response biochemical High Throughput Screening assay for agonists of the steroid receptor coactivator 1 (SRC-1) recruitment by the peroxisome proliferator-activated receptor gamma (PPAR gamma): non-selective agonists. [Related pubchem assays (depositor defined):AID1300, AID1808, AID504735, AID631]; format: protein assay
[4] = target: Peroxisome proliferator-activated receptor gamma/Nuclear receptor coactivator 3 (Homo sapiens, UniProt P37231); test: as §1, with “3 (SRC-3)” for “1 (SRC-1)”, “assays: 1301 (Confirmation screen.), 1048 (Primary screen.)]” for “assays (depositor defined):AID1300, AID1808, AID504735, AID631]”; format: functional
Beta-lactamase [5] = target: T1, Beta-lactamase; test: […] counterscreen for selective VIM-2 inhibitors: dose response biochemical high throughput screening assay to identify inhibitors of IMP-1 metallo-beta-lactamase.
[6] = target: Peroxisome proliferator-activated receptor gamma/Nuclear receptor coactivator 2 (Homo sapiens, UniProt P37231); test: TR-FRET dose response biochemical High Throughput Screening assay for agonists of the steroid receptor coactivator 2 (SRC-2) recruitment by the peroxisome proliferator-activated receptor gamma (PPAR gamma): non-selective agonists. [Related pubchem assays: 1297, 1032 ]; format: functional
[7] = target: FAD-linked sulfhydryl oxidase ALR (Homo sapiens, UniProt P55789); test: inhibitors of human ALR sulfhydryl oxidase, dose response, biochemical, H2O2 detection, luminescence, cherry-pick (AID 493248)
Protein skinhead-1 = target: T2, Protein skinhead-1 (Caenorhabditis elegans, UniProt P34707); format: functional
T2 sequence (P34707 whole entry): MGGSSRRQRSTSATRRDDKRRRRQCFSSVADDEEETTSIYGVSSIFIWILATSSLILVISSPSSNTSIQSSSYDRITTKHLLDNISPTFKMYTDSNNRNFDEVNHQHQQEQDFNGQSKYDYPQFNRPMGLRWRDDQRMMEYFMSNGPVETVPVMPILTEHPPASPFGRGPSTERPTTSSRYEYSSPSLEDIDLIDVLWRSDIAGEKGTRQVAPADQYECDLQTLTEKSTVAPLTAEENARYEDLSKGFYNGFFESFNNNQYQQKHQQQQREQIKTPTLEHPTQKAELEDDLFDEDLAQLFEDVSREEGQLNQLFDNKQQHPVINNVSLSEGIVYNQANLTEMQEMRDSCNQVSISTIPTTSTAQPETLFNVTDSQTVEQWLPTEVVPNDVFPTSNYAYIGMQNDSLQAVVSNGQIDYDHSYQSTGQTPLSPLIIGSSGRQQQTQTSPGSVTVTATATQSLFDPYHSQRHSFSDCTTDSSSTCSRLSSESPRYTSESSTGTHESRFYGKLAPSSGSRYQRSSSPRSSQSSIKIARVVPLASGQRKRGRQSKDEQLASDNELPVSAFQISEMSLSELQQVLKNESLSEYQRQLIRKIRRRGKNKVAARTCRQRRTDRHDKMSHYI

Estrogen receptor beta [8] = target: T3, Estrogen receptor beta (Homo sapiens, UniProt Q92731);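 also: recombinant ER-beta bound to coactivator SRC1 peptide in presence of estradiol agonist; inhibitors block coactivator peptide binding and lower the FRET signal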
Estrogen receptor beta [9] = target: T3, Estrogen receptor beta; test: ERβ–SRC-3 coactivator interaction inhibitors, confirmation, orthogonal assay, biochemical, ELISA, streptavidin-HRP readout (AID 1060)
Major prion protein = Major prion protein (Homo sapiens, UniProt P04156); format: functional, cell-based
cells [10] = test: cells
[11] = target: Protein-tyrosine kinase 2-beta (Homo sapiens, UniProt Q14289);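 also: potency of inhibitors of PYK2 kinase phosphorylation of poly-GT substrate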
[12] = miR-122 activators in hepatoma reporter cells, dose response, cell-based, Huh7 psiCHECK-miR122, Renilla luciferase, cherry-picked (AID 651956); format: functional;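 also: huh7 hepatoma cells stably carrying a psiCHECK-2 miR-122 sensor plasmid; renilla luciferase signal reporting endogenous miR-122 activity after 48 h compound exposure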
[13] = HEK293T cytotoxicity, dose response, cytotoxicity control for miR-122 modulator project, cell-based, inhibitor set, cherry-pick, set 2 (AID 720697); format: functional
cells [14] = format: functional, cell-based
cells [15] = format: functional, cell-based; remark: listed apart in the source
[16] = target: T4, Sentrin-specific protease 8 (Homo sapiens, UniProt Q96LD8); test: SENP8 protease inhibitors, SAR follow-up, biochemical, luminescence (AID 504501); format: functional
T4 sequence (Q96LD8 whole entry): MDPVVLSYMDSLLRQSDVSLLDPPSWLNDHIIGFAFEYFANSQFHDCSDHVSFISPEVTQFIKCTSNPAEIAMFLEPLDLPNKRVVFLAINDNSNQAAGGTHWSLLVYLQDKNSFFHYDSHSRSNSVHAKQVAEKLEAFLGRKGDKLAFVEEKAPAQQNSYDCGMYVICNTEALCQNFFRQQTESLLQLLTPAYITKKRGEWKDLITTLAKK

Caspase-3 = target: T5, Caspase-3 (Homo sapiens, UniProt P42574); test: SAR Analysis of small molecule inhibitors of Sentrin-specific proteases (SENPs) using a Caspase-3 Selectivity assay. [Related pubchem assays (depositor defined):AID2540, AID2599, AID434973, AID489001]; format: functional
T5 sequence (P42574 whole entry): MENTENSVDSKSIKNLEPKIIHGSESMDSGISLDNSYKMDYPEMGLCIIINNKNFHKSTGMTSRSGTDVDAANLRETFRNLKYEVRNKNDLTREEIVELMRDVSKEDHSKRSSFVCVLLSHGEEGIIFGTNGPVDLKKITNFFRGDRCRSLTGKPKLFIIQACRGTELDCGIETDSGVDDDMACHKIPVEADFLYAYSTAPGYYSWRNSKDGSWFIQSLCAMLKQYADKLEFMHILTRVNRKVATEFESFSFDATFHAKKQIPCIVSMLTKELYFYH

[17] = target: T6, Sentrin-specific protease 6 (Homo sapiens, UniProt Q9GZR1); test: SAR Analysis of small molecule inhibitors of Sentrin-specific protease 6 (SENP6) using a Luminescent assay. [Related pubchem assays (depositor defined):AID2582, AID2599]; format: functional
T6 sequence (Q9GZR1 whole entry): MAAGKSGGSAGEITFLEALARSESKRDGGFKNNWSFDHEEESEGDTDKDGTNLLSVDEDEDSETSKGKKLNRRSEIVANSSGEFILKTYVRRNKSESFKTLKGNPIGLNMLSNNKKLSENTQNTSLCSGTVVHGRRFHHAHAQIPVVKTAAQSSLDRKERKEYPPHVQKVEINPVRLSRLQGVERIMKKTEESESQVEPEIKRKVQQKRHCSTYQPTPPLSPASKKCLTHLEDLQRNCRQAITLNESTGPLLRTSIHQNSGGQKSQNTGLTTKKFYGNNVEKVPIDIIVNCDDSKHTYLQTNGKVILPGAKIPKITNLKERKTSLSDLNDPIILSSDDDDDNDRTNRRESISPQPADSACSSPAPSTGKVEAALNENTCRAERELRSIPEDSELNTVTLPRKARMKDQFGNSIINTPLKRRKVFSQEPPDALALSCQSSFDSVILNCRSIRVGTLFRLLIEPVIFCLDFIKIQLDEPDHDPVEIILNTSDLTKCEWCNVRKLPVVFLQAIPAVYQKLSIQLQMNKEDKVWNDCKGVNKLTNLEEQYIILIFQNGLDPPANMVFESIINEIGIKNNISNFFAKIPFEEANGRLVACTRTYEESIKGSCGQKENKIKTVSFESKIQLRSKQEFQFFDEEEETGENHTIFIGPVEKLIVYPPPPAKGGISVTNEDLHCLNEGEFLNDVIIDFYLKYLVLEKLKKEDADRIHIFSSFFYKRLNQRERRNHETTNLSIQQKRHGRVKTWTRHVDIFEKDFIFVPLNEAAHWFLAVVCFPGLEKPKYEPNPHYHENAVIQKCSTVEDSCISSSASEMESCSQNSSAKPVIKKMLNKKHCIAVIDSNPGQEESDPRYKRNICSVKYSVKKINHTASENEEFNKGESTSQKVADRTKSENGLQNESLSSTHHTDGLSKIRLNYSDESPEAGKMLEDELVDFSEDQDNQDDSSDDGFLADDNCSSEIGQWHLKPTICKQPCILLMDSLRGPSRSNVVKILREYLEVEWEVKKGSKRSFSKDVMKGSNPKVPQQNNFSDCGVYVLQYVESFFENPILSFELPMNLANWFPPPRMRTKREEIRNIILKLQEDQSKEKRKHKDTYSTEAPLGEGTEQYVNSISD

Paired box protein Pax-8 = Paired box protein Pax-8 (Homo sapiens, UniProt Q06710); test: inhibitors of PAX8-driven TPO luciferase reporter, dose response, RMG-I cells, cherry-pick (AID 687027); format: functional, cell-based;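 also: luciferase reporter driven by Pax8 target thyroperoxidase promoter measured by SteadyGlo luminescence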
[18] = non-specific cell cytotoxicity, dose response, cytotoxicity control for PAX8 inhibitor project, plate reader, dry powder samples (AID 743021); format: functional, cell-based
[19] = P. falciparum Dd2 growth inhibitors, dose response, SYBR Green, cherry-picked samples (AID 1159567); format: functional, cell-based
[20] = HepG2 cell cytotoxicity, dose response, cytotoxicity control, cherry-picked samples (AID 1159577); format: functional, cell-based
[21] = NIH:OVCAR-3 ovarian cancer cell cytotoxicity, dose response, PAX8 inhibitor project, plate reader, dry powder samples (AID 743044); format: functional, cell-based
[22] = IGROV1 ovarian cancer cell cytotoxicity, dose response, PAX8 inhibitor project, plate reader, dry powder samples (AID 743043); format: functional, cell-based; conditions: IGROV-1
[23] = target: T7, DNA repair protein RAD52 homolog (Homo sapiens, UniProt P43351); format: functional, biochemical
T7 sequence (P43351 whole entry): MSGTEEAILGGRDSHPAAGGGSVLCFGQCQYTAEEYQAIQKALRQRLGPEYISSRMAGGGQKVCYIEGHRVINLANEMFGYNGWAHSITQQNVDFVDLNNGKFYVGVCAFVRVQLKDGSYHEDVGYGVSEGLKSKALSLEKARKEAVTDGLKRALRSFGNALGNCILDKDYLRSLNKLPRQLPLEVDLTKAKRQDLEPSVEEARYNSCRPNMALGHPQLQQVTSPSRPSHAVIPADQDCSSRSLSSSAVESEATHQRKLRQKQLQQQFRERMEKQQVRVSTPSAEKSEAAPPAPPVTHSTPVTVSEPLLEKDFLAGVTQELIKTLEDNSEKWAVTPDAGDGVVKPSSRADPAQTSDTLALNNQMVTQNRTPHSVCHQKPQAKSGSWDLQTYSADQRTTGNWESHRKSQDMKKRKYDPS

[24] = human group III sPLA2 inhibitors, dose response, biochemical, QFRET, IC50 (AID 743457);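 also: green fluorescence rise as the enzyme cleaves BODIPY PC-A2 in liposomes; potency for inhibition of the enzyme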
[25] = T. cruzi growth inhibition in host cells, dose response, cell-based, plate reader, dry powder, set 2 (AID 652275); format: functional
[26] = HEK293 cell cytotoxicity, dose response, cytotoxicity control, cherry-picks, set 5 (AID 1053117); format: functional, cell-based

For `Cc1c(Cl)c(-c2nnc(S)n2-c2ccc(F)cc2)nn1C`, the IC50 (Beta-lactamase [1]) was > 59.6 µM (inactive), the IC50 (Beta-lactamase [2]) was > 59.6 µM (inactive) and the EC50 [3] was > 79.4 µM (inactive). The EC50 [4] was > 79.4 µM (not active), the IC50 (Beta-lactamase [5]) was > 59.6 µM (inactive) and the EC50 [6] was > 79.4 µM (not active). For the same compound, the AC50 [7] was 5.12 µM (active) and the IC50 (Protein skinhead-1) was > 100 µM (inactive).
For `CCC(Sc1ncnc2sc(C)c(C)c12)C(=O)OC` (stereo unspecified), the IC50 (Estrogen receptor beta [8]) was 14.1 µM (active), the IC50 (Estrogen receptor beta [9]) was < 0.023 µM (not active) and the IC50 (Major prion protein) was 2.46 µM (active). For the same compound, the IC50 (cells [10]) was > 138 µM (inactive).
In the case of `COC(=O)CSc1nc(C(C)C)nc2ccccc12`, the IC50 [11] is reported as > 69.5 µM (not active), the IC50 (Major prion protein) is reported as 0.91 µM (active) and the IC50 (cells [10]) is reported as > 138 µM (inactive).
In the case of `CN(C)C(=O)c1ccc(NC(=O)c2cc(-n3cnnc3)ccc2Cl)cc1`, the AC50 [12] is reported as 1.1 µM (active) and the AC50 [13] is reported as 1.88 µM (active).
In the case of `O=C(NCCS(=O)(=O)NCCc1ccccc1)c1ccc2c(c1)OCO2`, the IC50 (cells [14]) is reported as > 29.9 µM (inactive) and the EC50 (cells [15]) is reported as > 29.9 µM (inactive).
With `O=C(Nc1ccccc1F)c1ccc(OCc2ccccc2)cc1` the IC50 [16] was > 99 µM (inactive), the IC50 (Caspase-3) was 10.3 µM (active) and the IC50 [17] was > 99 µM (inactive). The IC50 (cells [14]) was > 29.9 µM (inactive) and the EC50 (cells [15]) was > 29.9 µM (inactive).
In the case of `NC(=O)c1csc(-c2ccncc2)n1`, the AC50 [13] is reported as 8.85 µM (active).
In the case of `COc1ccc(-c2ccc([C@@H]3[C@@H](CO)N4CCCCN(C(=O)Cc5ccccc5)C[C@H]34)cc2)cc1`, the AC50 (Paired box protein Pax-8) is reported as 41.5 µM (active), the AC50 [18] is reported as 40.8 µM (active) and the AC50 [19] is reported as 6.32 µM (active). The AC50 [20] was > 39 µM (inactive).
In the case of `O=C1CN(S(=O)(=O)Cc2ccccc2)C[C@@H]2[C@H](c3ccc(C#Cc4ccc(F)cc4)cc3)[C@H](CO)N12`, the AC50 (Paired box protein Pax-8) is reported as 9.68 µM (active), the AC50 [21] is reported as 31 µM (active) and the AC50 [22] is reported as 52.7 µM (active).
With `N=C(N)/N=N/C(=N\Nc1ccccc1)c1ccc(Cl)cc1` the AC50 [23] was 12.7 µM (active) and the IC50 [24] was > 122 µM (inactive).
For `CN(C)C(=O)c1cccc(-c2ccc([C@H]3[C@H](CO)N4CCCCN(C(=O)C5CCCC5)C[C@@H]34)cc2)c1`, the AC50 [25] was 0.065 µM (active).
In the case of `CO[C@H]1CN(C)C(=O)c2cc(NC(=O)Nc3ccc(Cl)c(Cl)c3)ccc2OC[C@@H](C)NC[C@H]1C`, the AC50 [26] is reported as > 52 µM (inactive).
